Values after ≈ are worked out from the molar mass of the structure shown. Like-named read-outs stand apart in the source and are kept apart here.
Legend:
IL-1b = assay: 5-plex assay by using Luminex: IL-1b; type: cell-based; details: pure compounds
From the text: (§1) The menthol-derivative compound of the present invention was further evaluated in 5-plex assay by using luminex.

TNF-α = assay: 5-plex assay by using Luminex: TNF-α; type: cell-based; details: for TNF-α (reduction of untreated control): pure compounds
From the text: as §1

[1] = Artificial mouth model (anti-microbial efficacy); details: FIG. 5
PGE2 = PGE2 assay (anti-inflammatory test, SOP No. ATO-5307-00); type: cell-based
Description: The anti-inflammation test was carried out according to SOP No. ATO-5307-00 measuring the percent inhibition of PGE2.
(§2) The bacterial anti-attachment activity of a selected radical of menthol carbonate/carbamate derivatives of the present invention was investigated using the crystal violate assay (SOP No. ATO-5345-00) in a 384-well plate over a 0.0004-2500 ppm concentration range. The anti-oxidant activity of the menthol carbonate/carbamate derivatives of the present invention was determined using the lipid peroxides assay (Kamiaya Biomedical Co., Seattle, Wash.) which is a colorimetric method that measures reduction of cumene hydroperoxide radicals. The anti-microbial test was performed according to the SOP No. ATO-5308-00 for determination of Minimal Inhibitory Concentration (MIC). The anti-inflammatory test was carried out according to SOP No. ATO-5307-00 measuring the percent inhibition of PGE2.
The anti-inflammatory activity of 2-isopropyl-5-methylcyclohexyl 2-hydroxyphenyl carbamate was tested in PGE2 assay and compared to Triclosan.

IL-6 = assay: 5-plex assay by using Luminex: IL-6; type: cell-based; details: for IL-6 (reduction of untreated control): pure compounds
From the text: as §1

A.v = assay: Minimal Inhibitory Concentration (MIC) test, SOP No. ATO-5308-00; type: cell-based; details: for MIC: read-out: MIC (against A.v)
Description: The anti-microbial test was measured according to the SOP No. ATO-5308-00 for determination of Minimal Inhibitory Concenctration (MIC).
as §2

MMP-13 mRNA = assay: Inhibition of MMP-13 mRNA expression stimulated by parathyroid hormone (PTH); type: cell-based; details: PTH for 4 hours, FIG. 4
Description: The anti-MMP-13 activity was determined by measuring the inhibition of MMP-13 mRNA expression that is stimulated by parathyroid hormone (PTH).

[2] = Lipid peroxides assay (anti-oxidant activity); type: biochemical; details: in simple solution, FIG. 2
Description: The anti-oxidant activity was determined using the lipid peroxidases assay (Kamiaya Biomedical Co., Seattle, Wash.) which is a colorimetric method that measures reduction of cumene hydroperoxide radicals.
as §2

GM-CSF = assay: 5-plex assay by using Luminex: GM-CSF; type: cell-based; details: pure compounds
From the text: as §1

SMILES | IL-1b (reduction of untreated control) (IL-1b) | TNF-α production (in words) (TNF-α; pure compound) | TNF-α (reduction of untreated control) (TNF-α) | Anti-microbial efficacy in artificial mouth model (in words) [1] | Anti-inflammatory activity in PGE2 assay (in words) (PGE2; pure compound) | IC50 (PGE2; pure compounds, PGE2 assay, read-out: IC50) | IL-6 production (in words) (IL-6; pure compound) | IL-6 (reduction of untreated control) (IL-6) | Anti-microbial efficacy in MIC test (in words) (A.v) | MIC (A.v; in vitro) | MMP-13 mRNA stimulated by parathyroid hormone (in words) (MMP-13 mRNA) | Anti-oxidant efficacy (in words) [2] | GM-CSF (reduction of untreated control) (GM-CSF) | IC50 (PGE2) | MIC (A.v)
CC1CCC(C(C)C)C(OC(=O)Nc2ccccc2O)C1 (stereo not shown) [2-isopropyl-5-methylcyclohexyl 2-hydroxyphenyl carbamate] | 13% | significantly inhibits | 81% | good anti-microbial efficacy | comparable to Triclosan | 380 nM | significantly inhibits | 33% | good anti-microbial efficacy | 4.9 µg/mL (≈ 16.8 µM) | significantly suppressed | comparable anti-oxidant efficacy with Vitamin E | 6% | – | –
Oc1cc(Cl)ccc1Oc1ccc(Cl)cc1Cl [Triclosan, 2,4,4-trichloro-2′-hydroxydiphenyl ether, reference compound] | 13% | – | 58% | – | – | – | – | 37% | – | – | – | – | 4% | 480 nM | 1.9 µg/mL (≈ 6.56 µM)
